The experiment addresses Substance-P receptor (Homo sapiens, UniProt P25103). Briefly: Compound was tested for the displacement of […] Substance P from hNK1 receptor in CHO cells. It is filed as cell-based.

Structures are written as SMILES.

Sequence of Substance-P receptor (P25103 whole entry): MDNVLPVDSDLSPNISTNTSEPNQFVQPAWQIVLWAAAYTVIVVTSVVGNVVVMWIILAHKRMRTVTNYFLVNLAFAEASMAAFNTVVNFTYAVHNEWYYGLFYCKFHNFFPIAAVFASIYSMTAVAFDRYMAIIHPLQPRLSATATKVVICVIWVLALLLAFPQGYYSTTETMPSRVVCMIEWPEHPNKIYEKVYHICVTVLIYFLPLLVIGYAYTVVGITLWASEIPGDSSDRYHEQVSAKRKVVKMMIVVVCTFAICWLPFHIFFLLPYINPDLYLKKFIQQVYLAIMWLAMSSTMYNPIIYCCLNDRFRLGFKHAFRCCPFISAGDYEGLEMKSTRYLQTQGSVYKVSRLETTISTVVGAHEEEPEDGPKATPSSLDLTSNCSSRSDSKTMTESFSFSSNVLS

One may read the IC50 as the concentration at which inhibition is half-maximal. Compound `FC(F)(F)c1cc(CO[C@H]2CCN[C@H]2c2ccccc2)cc(C(F)(F)F)c1` (racemic) yielded an IC50 of 7 nM. This counts as single-digit nanomolar.

Take `FC(F)(F)c1cc(CO[C@H]2CCCN[C@@H]2c2ccccc2)cc(C(F)(F)F)c1`: the 50% inhibitory concentration (IC50) was determined as 300 nM. Compared with the last compound, the IC50 is about 43-fold higher.

As for `FC(F)(F)c1cc(CO[C@@H]2CCCN[C@@H]2c2ccccc2)cc(C(F)(F)F)c1` (stereo in doubt), the half-inhibitory concentration (IC50) worked out at 350 nM.

`FC(F)(F)c1cc(CO[C@@H]2CCCN[C@@H]2c2ccccc2)cc(C(F)(F)F)c1` (stereo in doubt; (+/-)2) came in with a concentration for half-maximal inhibition (IC50) of 1.4 nM.
